The values below come from PMC3422259, “Additive Mixture Effects of Estrogenic Chemicals in Human Cell-Based Assays Can Be Influenced by Inclusion of Chemicals with Differing Effect Profiles” (PLoS ONE, 2012).

One data set concerns yeast estrogen screen. Set-up: method as in PMID 19499261. Particulars: cited from earlier work.
A further data set has as its system T47D-KBluc cells. Briefly: cells. Particulars: ERLUX; for Concentration at which estrogenic activity seen: and above. As to the method:
T47D-KBluc cells were obtained from the ATCC and the protocol established by the depositing authors was followed. Cells were routinely grown in RPMI media (with 10% foetal calf serum (FCS)). For seven days prior to experiments, cells were maintained in low estrogen conditions by the use of pre-assay media (RPMI, 10% charcoal-dextran stripped FCS, no antibiotics). For experiments, cells were seeded in white polystyrene 96 well plates at a density of 10,000 cells/well and allowed to attach for 24 hours before removal of media, and application of test chemicals. Test chemicals were dissolved in ethanol to give stock solutions of millimolar concentrations. Test and control solutions were obtained by dilution of ethanolic stocks in dosing media (phenol red-free RPMI, 5% charcoal-dextran stripped FCS, no antibiotics), and in all cases the final concentration of ethanol was 0.5%. The positive control was 1 nM estradiol. Positive and vehicle controls were run as eight replicate wells per plate, and compounds were tested in a dilution series comprising eight concentrations, each concentration tested in triplicate. As recommended by Wilson et al. two additional controls were also included on each plate: 1) vehicle control plus an antiestrogen, ICI 182,780 (1 µM), and 2) positive control plus ICI 182,780 (1 µM). […] A crude measure of toxicity was provided by comparing values for treatments that were not positive, with the value of the vehicle control. […] 24 hours after application of test and control solutions, a volume of Steady-Glo assay reagent (Promega) equal to the volume of culture media was added and plates were incubated for ten minutes, with shaking, to allow for cell lysis. Plates were then loaded into a plate reader (FLUOstar Optima, BMG Labtech) and incubated for a further ten minutes in the dark, followed by measurement of luminescence. To reduce variation, the temperature of the plate reader chamber was maintained at 27°C throughout.
(§1) Experiments were performed on different days meaning that results for different dilution series and different batches of the test chemicals were obtained on different days. Each single chemical was tested in three or more independent experiments. Use of normalisation meant that data from different experiments could be reliably combined and compared, as discussed previously. Data was expressed relative to the positive control, rather than as fold change from the vehicle response, for two reasons.
Effect concentrations (ECx) were defined relative to the effects of the estradiol concentration used as the positive control, for example EC50 is the concentration producing an effect of 50% of the positive control (estradiol, 1 nM (ERLUX) or 25 nM (ESCREEN)).
(§2) Results from regression analysis for each test chemicals were used to predict the CA effect for fixed-ratio mixtures designed on 1) equi-effective concentrations (balanced design), 2) possible human serum levels (non-balanced design). The original mathematical formulation of CA that defines for a mixture composed of n components with concentration c1 of the first component, c2 of the second component, and cn for the n-th component a combination effect X is [drawing 1] (1) Here, ECX1, ECX1 …, ECXn are the concentrations of the individual components that on their own produce the same effect X as the mixture, [15] The quotients cn/ECXn are called toxic units and scale all compounds in the mixture relative to their toxicity. They can be interpreted as the contribution of the compound to the total mixture concentration that is expected to produce the mixture effect X. According to equation 1, a mixture effect for a pre-defined effect level X is described only implicitly.

For data set [1], the system named is MCF-7 cells. Briefly: Estrogenicity assay, mitogenic endpoint (ESCREEN). The settings on record: for Signs of toxicity at the highest concentrations (in words): highest concentrations shown in Figure 2, may indicate toxicity; for Signs of estrogenicity: Active at concentration: ‘Active’ = positive signal clearly distinguishable from assay variability and noise; for Signs of estrogenicity (in words): chemical screened as potential modulator, tested alone. The procedure:
The ESCREEN assay was performed using cloned MCF-7 cells (described in [6], gifted from A. Soto, Boston) and the established ESCREEN method was followed using an adapted 96-well format. Cells were cultured in DMEM (5% FCS). For experiments, cells were seeded in clear polystyrene 96 well plates at a density of 2,500 cells/well and allowed to attach for 24 hours before washing with rinse media (phenol red-free DMEM, no supplements). […] Test chemicals were dissolved in ethanol to give stock solutions of millimolar concentrations. Test and control solutions were diluted prior to application in dosing media (phenol red free DMEM, 10% charcoal-dextran stripped FCS). The final concentration of ethanol was 0.5% in test and control wells. […] At all stages, media removal from cells was carried out gently and in a controlled fashion by use of an electronic multichannel pipette set to the lowest speed possible. Controls were run as eight replicate wells per plate and compounds were tested in a dilution series comprising eight concentrations, each concentration tested in two replicate wells per plate. The plate layout was designed to reduce variation due to evaporation and spreading of test chemicals, and had been previously optimised in the laboratory. After application of test solutions, plates were incubated for 120 hours before fixation with 10% trichloroacetic acid and sulforhodamine B (SRB) staining to measure protein and allow the indirect quantification of cell number.
as §1
as §2, with “implicitly. However, if the individual concentrations ci are expressed as relative fractions pi to the total mixture concentration ECxMix, then equation 1 can be re-arranged to [drawing 2] (2) which allows the direct calculation of the mixture concentration that is expected to produce the mixture effect X. To form a prediction curve, equation 2 is iterated through for various effect levels resulting in sets of effects and their associated predicted mixture concentration which are then plotted to produce a graph of the effect prediction.” for “implicitly.”
Both equations 1 and 2 require knowledge of the concentration of each mixture component that on its own produces the effect magnitude under consideration. For this reason, these equations cannot be used for predicting mixture effects that exceed the maximal effect of the least efficacious component, because those effect concentrations cannot be defined.

For data set [2], the system named is MCF-7 cells. Briefly: Modulation studies (ESCREEN only): effect of potential modulators on the response evoked by a reference mixture of estrogens (REFmix). The data set is classed as cell-based, human. Particulars: for Modulation of the REFmix effect (in words) / Concentration at which complete suppression (full inhibition) of REFmix effect was reached: ESCREEN; for Observed modulation: ESCREEN response to REFmix (Mixture 3d, ca. 50% effect), screening, one experiment; for Concentration at which complete suppression (full inhibition) of REFmix effect was reached: individual modulator screening. From the text:
Modulation studies comprised screening of individual modulators in low power experiments accompanied by parallel testing of an equimolar mixture of all modulators. This combination of low power screening and mixture testing provides the opportunity to assess a high number of chemicals (16 in this case) without a prohibitive amount of experimental effort. In this case the effects of 16 modulators could be evaluated using a total of 19 experimental plates (16 for screening and 3 for mixture testing).
To normalize for small changes in the absolute value of the positive control and the control response to the selected REFmix concentration, the response evoked by the REFmix control on each plate was defined as the 50% effect and all modulator study results are normalized to that value.
A mixture of modulators (MODmix) was also tested and was composed with a fixed ratio of equimolar concentrations, since the activity of each modulator was not known at the time of designing the mixture.
In these modulator studies, we examined 16 single chemicals (listed in Table 7) and an equimolar mixture of all 16 components for their ability to modulate the effects of a reference mixture (REFmix) which contained 14 food additives and contaminants (Table 1, Mixture 3d). […] Single chemicals were tested individually in single experiments (screening) and then a mixture composed using a fixed ratio of equal molarities was subjected to repeated testing.
Figure 5 Results of modulation studies. […] Experimental results are shown as grey circles representing each replicate (duplicate testing within the assay) and obtained in three independent (A) or one (B–Q) experiment (s). Experimental results were normalized by setting the value observed for the REFmix alone, the concentration of which was selected to evoke a […] of ca. 50%, to 0.5. The positive control values (black circles, eight replicates per experimental plate, 25 nM estradiol) are indicated adjacent to the y-axis. […] A black line indicates a LOESS spline fit to the data (A–Q) and a grey line indicates linear regression fit to the data for individual modulators (B–Q). A vertical dotted line is drawn at a mixture concentration of 1.6 µM (A) or at the concentration of each modulator present at that mixture concentration (0.1 uM, B–Q). Visual inspection of the individual modulator results (B–Q) was used to identify possible modulation, i.e. when the experimental data appears to deviate from the linear regression, or when the linear regression is not horizontal, and when the magnitude of the modulation is outside the variation expected in the assay.

Molecules are shown by their SMILES. Entries after “also recorded” stand apart in the source; their conditions may differ. Read-outs that look alike come from different tables or passages of the source.

`Nc1ccc([N+](=O)[O-])cc1[N+](=O)[O-]` [2,4-dinitroaniline]: in the data set with yeast estrogen screen, the “Modulation of the estrogenicity of estradiol or a ternary mixture of estradiol, estrone and estriol (in words)” value (from here on “Modulation of the estrogenicity … (in words)”) is “negative modulation”.

Consider `CCCCOC(=O)c1ccccc1C(=O)OCc1ccccc1` [BBP, Butyl benzyl phthalate], for which, in the data set with T47D-KBluc cells, the “Estrogenicity when tested alone (in words)” value is “estrogenic” and the “Concentration at which estrogenic activity seen” value lay within 0.1 to 1 µM. Also, the “Toxicity (in words)” value in the data set with T47D-KBluc cells (crude measure within the assay / dose-response analysis) is reported as “evidence for toxicity”. Moreover, in the data set with MCF-7 cells [1] (ESCREEN), the “Signs of toxicity at the highest concentrations (in words)” value was “decline in response” and the “Signs of estrogenicity: Active at concentration” value (from here on “Signs of estrogenicity: Active”) is on record as “Active at 1 µM or higher”. Further, the “Signs of toxicity: Toxic at concentration” value in the data set with MCF-7 cells [1] (ESCREEN, reduction in signal at concentrations above those showing estrogenicity) is on record as “Toxic at 100 µM”. In the data set on MCF-7 cells [2], the “Modulation of the REFmix effect (in words)” value is reported as “no indication of negative modulation” and the Observed modulation entry was “None”.

As a reminder, the EC10 is the concentration at which the effect reaches the 10% level. Usually EC25 stands for the concentration needed for an effect of 25%. In the case of `c1ccc2c(c1)cc1ccc3cccc4ccc2c1c34` [Benzo [a] pyrene], the EC10 with T47D-KBluc cells (concentration producing 10% effect relative to positive control 1 nM estradiol, 24 hours) was determined as 862 nM. Also, the EC25 in the data set on T47D-KBluc cells (concentration producing 25% effect relative to positive control 1 nM estradiol, 24 hours) worked out at 2060 nM. In the data set with T47D-KBluc cells (estimated maximal model asymptote, effect relative to positive control (1 nM estradiol)), the “Concentration Response Function θ^∧ max” value is on record as 0.90. Also, the “Signs of estrogenicity (in words)” value in the data set with MCF-7 cells [1] (ESCREEN) is listed as “None”. In the data set with MCF-7 cells [1] (ESCREEN, listed as BaP), the “Estrogenicity when tested alone (in words)” value is on record as “not active; also recorded: not when tested alone”. In addition, in the data set on MCF-7 cells [2], the “Modulation of the REFmix effect (in words)” value is reported as “clear negative modulation”, the Observed modulation result is reported as “Clear negative” and the “Concentration at which complete suppression (full inhibition) of REFmix effect was reached” value is recorded as at most 1 µM. In the data set on MCF-7 cells [2] (listed as BaP), the “Concentration at which complete suppression (full inhibition) of REFmix effect was reached” value was “around 1 µM”.

As to `CCCCOC(=O)c1ccccc1C(=O)OCCCC` [DBP, Di butyl phthalate], in the data set on T47D-KBluc cells, the “Estrogenicity when tested alone (in words)” value was “no estrogenicity”. For the same compound, the “Signs of toxicity (in words)” value with MCF-7 cells [1] is “None”. For the same compound, the “Signs of estrogenicity: Active” value in the data set on MCF-7 cells [1] (ESCREEN) is “Active at 10 µM or higher”. Moreover, in the data set on MCF-7 cells [2], the “Modulation of the REFmix effect (in words)” value is “possible negative modulation” and the Observed modulation result was “Possible negative”.

On to `CCCCC(CC)COC(=O)c1ccccc1C(=O)OCC(CC)CCCC` (stereo not shown) [DEHP, Di ethyl hexyl phthalate], for which the “Estrogenicity when tested alone (in words)” value in the data set on T47D-KBluc cells is on record as “no estrogenicity”. In the data set on MCF-7 cells [1] (ESCREEN), the “Concentration at which estrogenicity occurred when tested alone” value was “greater than 1 µM”, the “Signs of toxicity at the highest concentrations (in words)” value was “decline in response” and the “Signs of estrogenicity: Active” value was “Active at 1 µM or higher”. For the same compound, the “Concentration at which toxicity began” value in the data set with MCF-7 cells [1] (ESCREEN, before a full estrogenic response was reached) is given as 5 µM. Further, in the data set on MCF-7 cells [2], the “Modulation of the REFmix effect (in words)” value is “no indication of negative modulation” and the Observed modulation result is reported as “None”.

Take `CCOC(=O)c1ccccc1C(=O)OCC` [DEP, Di ethyl phthalate]: in the data set on T47D-KBluc cells, the “Estrogenicity when tested alone (in words)” value is recorded as “estrogenic” and the “Concentration at which estrogenic activity seen” value was in the range of 0.1 to 1 µM. For the same compound, in the data set on MCF-7 cells [1] (ESCREEN), the “Signs of toxicity (in words)” value is on record as “None” and the “Signs of estrogenicity: Active” value is “Active at 10 µM or higher”. In addition, in the data set on MCF-7 cells [2], the “Modulation of the REFmix effect (in words)” value is “no indication of negative modulation” and the Observed modulation result was “None”.

For `C[S+](C)[O-]` [DMSO], the “Modulation of the estrogenicity … (in words)” value in the data set on yeast estrogen screen is “no effect”.

Consider `[Cl][Hg][Cl]` [HgCl2, Mercury chloride], for which the “Signs of estrogenicity (in words)” value in the data set on MCF-7 cells [1] (ESCREEN) is given as “None”. In the data set on MCF-7 cells [1] (ESCREEN, decrease in value for treated wells below vehicle controls, assignment not certain), the “Signs of toxicity: Possible toxicity at concentration” value was “Possible toxicity at 10 µM and greater”. Moreover, in the data set on MCF-7 cells [2], the “Modulation of the REFmix effect (in words)” value was “no indication of negative modulation” and the Observed modulation result is given as “None”. Also, the “Modulation of the estrogenicity … (in words)” value in the data set with yeast estrogen screen is “no effect”.

For `C[C@@H]1C[C@@H]([C@H](O)CC2CC(=O)NC(=O)C2)C(=O)[C@@H](C)C1` [cycloheximide, reference compound], the “Modulation of the estrogenicity … (in words)” value with yeast estrogen screen is “negative modulation”.
